Key:
Assay in all cases: fluorescence turn-on
[1] = test system: RNA half adder + AND_DNA inhibitor + XOR_DNA inhibitor (0-0) (DNA:RNA, aptamer) GGUGCCCGCUGACCGGAGACGGUCAAAUAGAGCACAGGAUGGUAACGAAUGACCAGCCCGAGGUCGCGACCUUCUUUUCCCUCGCGACUCGAAAUGUUUCUUUUCGAGGUCGCCCCGUAUCUGUCGAGUAGAGUGUGGGCUCGCACGCGGCUGCC/GGCGGCTGCCGCGCAGAGACGGUCGGGUCCAGAUAUUGGAUCUUUCGCCUUUUCGCGAUACGGGCCAACGAUGGGUUUUGAAGGUCGCGACAAGGGCUGGTCCGACAUCCCACACAAATAGAGTGTGGGCCGAGCAGCGGCACC/GGUGCCCGCUGACCGGAGACGGUCAAAUAGAGCACAGGAUGGUAACGAAUGACCAGCCCGAGGGCGACCUCGUUUUGUACCAGCAUCCUCUUCAUAAGUUUUGGCGAAAGAUCCCGUAUCUGUCGAGUAGAGUGUGGGCUCGCACGCGGCUGCC/GGCGGCUGCCGCGCAGAGACGGUCGGGUCCAGAUAUUGGGCGACCUCGUUUUCCGGGAUAUGGUCUCGGCCAACUUUUCGAGGUCGCCCAAGGGCUGGUCCGACAUCCCACACAAAUAGAGUGUGGGCCGAGCAGCGGCAGC/GGAUGCUGGUACUUUUGUUGGCCGAGACCAUAUCCCGGUUUUGAAACAUUUCGAGUCGCGAGGGUUUUCCCAUCGUUGGCCCGUAUCGCGUUUUCUUAUGAAGA/ATAACAGCGCGTAGGGCCACGCTGCCGCTGCTCGGCCCACACTCTATTTGACCGGGATGTCGGACCAGCTGGTCATTCCTTACCATCCCACACTCTATTTGACCGTCTCCGGTCAGCGGGCAGGCGAGCCCTACGCGCTGTTAT/GGCAGCCGCGTGTGCCGCTGGCTCGGCCACACTCTATTTGACCGTCCGGTGCGAGCTGCGCGGCGAGCCCTA; details: 22 °C, 1 μM RNA strands, 2 μM each inhibitor, 5 μM dye
[2] = test system: NOR gate + NOR_input A + NOR_input B (1-1) (DNA:RNA, aptamer) GGUUUGCAAACAUGCUUUGGAUGGUAACGAAUGACCAGCCCGAAAGGGCUGGUCCGACAUCCUUUGGGAAAUCCUUU/CCATCCAAAGCATGTTTGCAAA/AAAGGATTTCCCAAAGGATGTCGGACC; details: 100 mM NaCl, 10 mM MgCl2; 50 mM Tris pH 8.0, 22 °C; 1 μM RNA, 2 μM dye, 2 μM each input; output OFF
[3] = test system: RNA AND/OR gate (no inputs, 0-0) (RNA, aptamer) GGUUUCAACCUUUGCAAACAUGCUUUGGAUGGUAACGAAUGACCAGCCCGAAAGGGCUGGUCCGACAUCCUUUGGGAAAUCCUUUGGGUGCCGUUU; details: 100 mM NaCl, 10 mM MgCl2; 50 mM Tris pH 8.0, 22 °C; 1 μM RNA, 2 μM dye; output OFF (<60% normalized)
[4] = test system: RNA NAND/NOR gate (no inputs, 0-0) (RNA, aptamer) GGUUUGCAAACAUGCUUUGGAUGGUAACGAAUGACCAGCCCGAAAGGGCUGGUCCGACAUCCUUUGGGAAAUCCUUU; details: 100 mM NaCl, 10 mM MgCl2; 50 mM Tris pH 8.0, 22 °C; 1 μM RNA, 2 μM dye; output ON
[5] = test system: NAND gate + NAND_input A + NAND input B (1-1) (DNA:RNA, aptamer) GGUUUGCAAACAUGCUUUGGAUGGUAACGAAUGACCAGCCCGAAAGGGCUGGUCCGACAUCCUUUGGGAAAUCCUUU/CTATAGCATGTTTGC/TTGATTTCCCTTTGGT; details: 100 mM NaCl, 10 mM MgCl2; 50 mM Tris pH 8.0, 22 °C; 2 μM dye; output OFF (<60% normalized)
[6] = test system: OR gate + OR_input A (1-0) (DNA:RNA, aptamer) GGUUUCAACCUUUGCAAACAUGCUUUGGAUGGUAACGAAUGACCAGCCCGAAAGGGCUGGUCCGACAUCCUUUGGGAAAUCCUUUGGGUGCCGUUU/GCATGTTTGCAAAGGTTGAAA; details: 100 mM NaCl, 10 mM MgCl2; 50 mM Tris pH 8.0, 22 °C; 1 μM RNA, 2 μM dye, 2 μM each input; output ON
[7] = test system: NAND gate + NAND input B (0-1) (DNA:RNA, aptamer) GGUUUGCAAACAUGCUUUGGAUGGUAACGAAUGACCAGCCCGAAAGGGCUGGUCCGACAUCCUUUGGGAAAUCCUUU/TTGATTTCCCTTTGGT; details: 100 mM NaCl, 10 mM MgCl2; 50 mM Tris pH 8.0, 22 °C; 2 μM dye; fluorescence slightly higher than without input
[8] = test system: NOR gate + NOR_input A (1-0) (DNA:RNA, aptamer) GGUUUGCAAACAUGCUUUGGAUGGUAACGAAUGACCAGCCCGAAAGGGCUGGUCCGACAUCCUUUGGGAAAUCCUUU/CCATCCAAAGCATGTTTGCAAA; details: 100 mM NaCl, 10 mM MgCl2; 50 mM Tris pH 8.0, 22 °C; 1 μM RNA, 2 μM dye, 2 μM each input; output OFF
[9] = test system: NOR gate + NOR_input B (0-1) (DNA:RNA, aptamer) GGUUUGCAAACAUGCUUUGGAUGGUAACGAAUGACCAGCCCGAAAGGGCUGGUCCGACAUCCUUUGGGAAAUCCUUU/AAAGGATTTCCCAAAGGATGTCGGACC; details: 100 mM NaCl, 10 mM MgCl2; 50 mM Tris pH 8.0, 22 °C; 1 μM RNA, 2 μM dye, 2 μM each input; output OFF
[10] = test system: AND gate + AND_input B (0-1) (DNA:RNA, aptamer) GGUUUCAACCUUUGCAAACAUGCUUUGGAUGGUAACGAAUGACCAGCCCGAAAGGGCUGGUCCGACAUCCUUUGGGAAAUCCUUUGGGUGCCGUUU/AAACAGCGTCCAGAGGAT; details: 100 mM NaCl, 10 mM MgCl2; 50 mM Tris pH 8.0, 22 °C; 2 μM dye, 2 μM input; output OFF (<60% normalized)
[11] = test system: AND gate + AND_input A (1-0) (DNA:RNA, aptamer) GGUUUCAACCUUUGCAAACAUGCUUUGGAUGGUAACGAAUGACCAGCCCGAAAGGGCUGGUCCGACAUCCUUUGGGAAAUCCUUUGGGUGCCGUUU/GTAAGCTTTGGTTGA …; details: 100 mM NaCl, 10 mM MgCl2; 50 mM Tris pH 8.0, 22 °C; 2 μM dye, 2 μM input; output OFF (<60% normalized)
[12] = test system: AND gate + AND_input A + AND_input B (1-1) (DNA:RNA, aptamer) GGUUUCAACCUUUGCAAACAUGCUUUGGAUGGUAACGAAUGACCAGCCCGAAAGGGCUGGUCCGACAUCCUUUGGGAAAUCCUUUGGGUGCCGUUU/GTAAGCTTTGGTTGA/AAACAGCGTCCAGAGGAT; details: 100 mM NaCl, 10 mM MgCl2; 50 mM Tris pH 8.0, 22 °C; 1 μM RNA, 2 μM dye, 2 μM each input; output ON
[13] = test system: OR gate + OR_input B (0-1) (DNA:RNA, aptamer) GGUUUCAACCUUUGCAAACAUGCUUUGGAUGGUAACGAAUGACCAGCCCGAAAGGGCUGGUCCGACAUCCUUUGGGAAAUCCUUUGGGUGCCGUUU/AAACGGCGTCCAAAGGATTTCCC; details: 100 mM NaCl, 10 mM MgCl2; 50 mM Tris pH 8.0, 22 °C; 1 μM RNA, 2 μM dye, 2 μM each input; output ON
[14] = test system: OR gate + OR_input A + OR_input B (1-1) (DNA:RNA, aptamer) GGUUUCAACCUUUGCAAACAUGCUUUGGAUGGUAACGAAUGACCAGCCCGAAAGGGCUGGUCCGACAUCCUUUGGGAAAUCCUUUGGGUGCCGUUU/GCATGTTTGCAAAGGTTGAAA/AAACGGCGTCCAAAGGATTTCCC; details: 100 mM NaCl, 10 mM MgCl2; 50 mM Tris pH 8.0, 22 °C; 1 μM RNA, 2 μM dye, 2 μM each input; output ON
[15] = test system: NAND gate + NAND_input A (1-0) (DNA:RNA, aptamer) GGUUUGCAAACAUGCUUUGGAUGGUAACGAAUGACCAGCCCGAAAGGGCUGGUCCGACAUCCUUUGGGAAAUCCUUU/CTATAGCATGTTTGC; details: 100 mM NaCl, 10 mM MgCl2; 50 mM Tris pH 8.0, 22 °C; 2 μM dye; fluorescence lower than without input

binding ([1]; low fluorescence at 510 nm) | binding [2] | binding ([1]; low fluorescence at 650 nm) | binding [3] | binding [4] | binding [5] | binding [6] | binding [7] | binding [8] | binding [9] | binding [10] | binding [11] | binding [12] | binding [13] | binding [14] | binding [15] | Compound
no |  |  |  |  |  |  |  |  |  |  |  |  |  |  |  | CC1=N/C(=C\c2cc(F)c(O)c(F)c2)C(=O)N1C
 | no | no | no | yes | weak | yes | yes | no | no | weak | weak | yes | yes | yes | yes | CN(C)c1ccc(C(=C2C=CC(=[N+](C)C)C=C2)c2ccccc2)cc1
